Reference: article PMC9516332 (Frontiers in Oncology, 2022)
Like-named read-outs stand apart in the source and are kept apart here.

What was measured:
[1] = tested on: ERBB2-amplified cell lines; assay: Cell viability assay, ERBB2-amplified versus non-amplified cell lines; assay type: cell-based; conditions: MANOVA
Procedure: The effect of compounds on cell viability was determined by measuring intracellular ATP content as an indirect readout of cell number ([15]). […] A vehicle-treated control (0.4% (v/v) DMSO) was included in quadruplicate on the same assay plate to determine maximum cell growth. The final DMSO concentration was 0.4% (v/v) in all wells. After incubation for another 72 hours, ATP content in each well was measured as described previously. […] When the cell doubling deviated > 2-fold from the historic doubling as determined in multiple independent experiments, the experiment was invalidated and repeated. […] IC50 values of kinase inhibitors were calculated by fitting a 4-parameter logistic curve to the percentage viability values using IDBS XLfit5 (IDBS, Guildford, United Kingdom). […] . For some compounds, biphasic curves were measured in one or more cell lines, indicating a dual mechanism of action in these cell lines ([29]). […] For all bioinformatic analyses, ^10log(IC50 [nmol/L]) values were used.
Cell lines were classified as having an alteration in a specific cancer gene if at least one allele was altered by point mutation, insertion, deletion, fusion, or amplification. The mutation, fusion, and amplification status of the cell lines was retrieved from the COSMIC cell lines project (version 80) ([23]), Cancer Cell Line Encyclopedia (CCLE), DepMap (version 22Q1) ([16]), and Cellosaurus ([30]) databases. In order to ensure that genomic alterations included in subsequent analyses were relevant to cancer growth and drug response, mutations were only included when they were either reported as a hotspot mutation in Cancer Hotspots ([31]), described as oncogenic and gain-of-function in OncoKB or JAX CKB, or described as pathogenic in the literature. […] J82 was therefore annotated as FGFR3 wild-type.
All statistical analyses were performed in R (version 4.1.2), unless otherwise indicated. A two-sided Mann-Whitney test was performed for two-group comparisons. […] . Multivariate analysis of variance (MANOVA) was performed for multi-group comparison.

MEK1 = MEK1 (Homo sapiens, UniProt Q02750); assay: Enzyme-linked immunosorbent assay (ELISA) of enzymatic activity, IC50; assay type: biochemical
MEK2 = MEK2 (Homo sapiens, UniProt P36507); assay: as above; assay type: biochemical
ALK = target: T1, ALK (Homo sapiens, UniProt Q9UM73); assay: Biochemical kinase assay (MSA), IC50
T1 construct: purchased Carna Biosciences (only by web pointer)

MET-altered cell lines = conditions: MANOVA
[2] = tested on: EGFR double mutants p.ex19del/T790M and p.L858R/T790M; assay: Biochemical kinase assays with EGFR mutants
[3] = tested on: NCI-H1975 (EGFR p.L858R + p.T790M); assay: Cell viability assay; assay type: cell-based
ALK-altered cell lines = assay: Cell viability assay, ALK-altered versus ALK wild-type cell lines; assay type: cell-based; conditions: MANOVA
FLT3 = target: T2, FLT3 (Homo sapiens, UniProt P36888); assay: Biochemical kinase assay (MSA), IC50; conditions: biochemical assays
T2 construct: purchased Carna Biosciences (only by web pointer)

[4] = tested on: FLT3 ITD-mutant cell lines MOLM-13 and MV4-11; assay: Cell viability assay; assay type: cell-based
FGFR-altered cell lines = assay: Cell viability assay, FGFR-altered versus FGFR wild-type cell lines; assay type: cell-based; conditions: for IC50: read-out: average IC50 in the eight FGFR-altered cell lines; for higher potency in FGFR-altered compared to FGFR wild-type cell lines: on average; for higher potency in FGFR-altered compared to FGFR wild-type cell lines / activity in FGFR-altered versus wild-type cell lines: MANOVA
ROS = target: T3, ROS (Homo sapiens, UniProt P08922); assay: Biochemical kinase assay (MSA), IC50; conditions: biochemical assays
T3 construct: purchased Carna Biosciences (only by web pointer)

FGFR3 = target: T4, FGFR3 (Homo sapiens, UniProt P22607); assay: Biochemical kinase assay (MSA), IC50
T4 construct: purchased Carna Biosciences (only by web pointer)

FGFR2 = target: T5, FGFR2 (Homo sapiens, UniProt P21802); assay: Biochemical kinase assay (MSA), IC50
T5 construct: purchased Carna Biosciences (only by web pointer)

[5] = tested on: RET-altered cell lines (LC-2/ad, TT); assay: Cell viability assay, RET-altered versus RET wild-type cell lines; assay type: cell-based; conditions: for lower IC50 in RET-altered versus wild-type cell lines: MANOVA
FGFR1 = target: T6, FGFR1 (Homo sapiens, UniProt P11362); assay: Biochemical kinase assay (MSA), IC50
T6 construct: purchased Carna Biosciences (only by web pointer)

FGFR4 = target: T7, FGFR4 (Homo sapiens, UniProt P22455); assay: Biochemical kinase assay (MSA), IC50
T7 construct: purchased Carna Biosciences (only by web pointer)

RET = target: T8, RET (Homo sapiens, UniProt P07949); assay: Biochemical kinase assay (MSA), IC50; conditions: biochemical assays
T8 construct: purchased Carna Biosciences (only by web pointer)

EGFR = target: T9, EGFR (Homo sapiens, UniProt P00533); assay: Biochemical kinase assay (MSA), IC50
T9 construct: purchased Carna Biosciences (only by web pointer)

HER4 = target: T10, HER4 (Homo sapiens, UniProt Q15303); assay: Biochemical kinase assay (MSA), IC50
T10 construct: purchased Carna Biosciences (only by web pointer)

HER2 = target: T11, HER2 (Homo sapiens, UniProt P04626); assay: Biochemical kinase assay (MSA), IC50
T11 construct: purchased Carna Biosciences (only by web pointer)

BRK = target: T12, BRK (Homo sapiens, UniProt Q13882); assay: Biochemical kinase assay (MSA), IC50
T12 construct: purchased Carna Biosciences (only by web pointer)

Chain of MEK2 (P36507 whole entry): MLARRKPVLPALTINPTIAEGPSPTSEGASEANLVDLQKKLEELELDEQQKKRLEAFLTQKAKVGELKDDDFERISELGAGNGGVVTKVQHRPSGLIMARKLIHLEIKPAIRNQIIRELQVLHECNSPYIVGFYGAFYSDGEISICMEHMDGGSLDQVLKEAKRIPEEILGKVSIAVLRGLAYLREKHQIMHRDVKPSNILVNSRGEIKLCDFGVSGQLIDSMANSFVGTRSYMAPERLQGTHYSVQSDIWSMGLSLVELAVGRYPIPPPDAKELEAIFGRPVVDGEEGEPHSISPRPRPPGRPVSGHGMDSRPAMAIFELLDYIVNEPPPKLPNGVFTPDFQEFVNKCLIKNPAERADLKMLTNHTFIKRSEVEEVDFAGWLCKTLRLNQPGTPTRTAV
T4 sequence (P22607 23-806): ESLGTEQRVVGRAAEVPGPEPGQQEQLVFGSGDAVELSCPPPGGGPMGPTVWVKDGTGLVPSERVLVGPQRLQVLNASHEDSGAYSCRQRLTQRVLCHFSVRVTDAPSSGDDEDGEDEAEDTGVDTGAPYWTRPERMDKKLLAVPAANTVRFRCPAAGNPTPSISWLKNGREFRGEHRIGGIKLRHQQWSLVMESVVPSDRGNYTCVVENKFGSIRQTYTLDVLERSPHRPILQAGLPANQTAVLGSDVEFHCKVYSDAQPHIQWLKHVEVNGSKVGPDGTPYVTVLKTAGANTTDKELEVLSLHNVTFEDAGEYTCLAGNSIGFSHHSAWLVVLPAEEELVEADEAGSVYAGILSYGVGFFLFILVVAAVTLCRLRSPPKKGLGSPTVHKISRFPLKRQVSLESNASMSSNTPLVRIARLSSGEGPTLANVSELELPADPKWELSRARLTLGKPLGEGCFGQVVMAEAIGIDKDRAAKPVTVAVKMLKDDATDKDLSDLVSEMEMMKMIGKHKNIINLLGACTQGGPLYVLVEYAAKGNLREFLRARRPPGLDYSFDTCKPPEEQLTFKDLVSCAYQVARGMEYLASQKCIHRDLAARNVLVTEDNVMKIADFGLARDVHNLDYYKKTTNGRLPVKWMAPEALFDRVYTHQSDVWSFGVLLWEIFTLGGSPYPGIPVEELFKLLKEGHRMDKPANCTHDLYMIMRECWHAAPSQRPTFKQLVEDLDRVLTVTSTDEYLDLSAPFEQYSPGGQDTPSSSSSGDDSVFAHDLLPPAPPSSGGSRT
Chain of MEK1 (Q02750 whole entry): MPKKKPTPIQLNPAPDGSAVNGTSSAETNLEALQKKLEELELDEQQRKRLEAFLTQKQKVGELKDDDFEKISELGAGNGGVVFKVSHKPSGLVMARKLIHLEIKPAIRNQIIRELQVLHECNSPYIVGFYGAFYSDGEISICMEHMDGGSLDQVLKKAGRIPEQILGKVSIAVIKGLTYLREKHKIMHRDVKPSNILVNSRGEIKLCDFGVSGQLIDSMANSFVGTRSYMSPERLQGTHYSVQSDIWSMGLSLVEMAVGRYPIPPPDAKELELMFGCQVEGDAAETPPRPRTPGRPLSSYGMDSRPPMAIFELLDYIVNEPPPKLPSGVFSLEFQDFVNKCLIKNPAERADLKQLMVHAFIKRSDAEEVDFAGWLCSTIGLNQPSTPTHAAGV
T1 sequence (Q9UM73 19-1620): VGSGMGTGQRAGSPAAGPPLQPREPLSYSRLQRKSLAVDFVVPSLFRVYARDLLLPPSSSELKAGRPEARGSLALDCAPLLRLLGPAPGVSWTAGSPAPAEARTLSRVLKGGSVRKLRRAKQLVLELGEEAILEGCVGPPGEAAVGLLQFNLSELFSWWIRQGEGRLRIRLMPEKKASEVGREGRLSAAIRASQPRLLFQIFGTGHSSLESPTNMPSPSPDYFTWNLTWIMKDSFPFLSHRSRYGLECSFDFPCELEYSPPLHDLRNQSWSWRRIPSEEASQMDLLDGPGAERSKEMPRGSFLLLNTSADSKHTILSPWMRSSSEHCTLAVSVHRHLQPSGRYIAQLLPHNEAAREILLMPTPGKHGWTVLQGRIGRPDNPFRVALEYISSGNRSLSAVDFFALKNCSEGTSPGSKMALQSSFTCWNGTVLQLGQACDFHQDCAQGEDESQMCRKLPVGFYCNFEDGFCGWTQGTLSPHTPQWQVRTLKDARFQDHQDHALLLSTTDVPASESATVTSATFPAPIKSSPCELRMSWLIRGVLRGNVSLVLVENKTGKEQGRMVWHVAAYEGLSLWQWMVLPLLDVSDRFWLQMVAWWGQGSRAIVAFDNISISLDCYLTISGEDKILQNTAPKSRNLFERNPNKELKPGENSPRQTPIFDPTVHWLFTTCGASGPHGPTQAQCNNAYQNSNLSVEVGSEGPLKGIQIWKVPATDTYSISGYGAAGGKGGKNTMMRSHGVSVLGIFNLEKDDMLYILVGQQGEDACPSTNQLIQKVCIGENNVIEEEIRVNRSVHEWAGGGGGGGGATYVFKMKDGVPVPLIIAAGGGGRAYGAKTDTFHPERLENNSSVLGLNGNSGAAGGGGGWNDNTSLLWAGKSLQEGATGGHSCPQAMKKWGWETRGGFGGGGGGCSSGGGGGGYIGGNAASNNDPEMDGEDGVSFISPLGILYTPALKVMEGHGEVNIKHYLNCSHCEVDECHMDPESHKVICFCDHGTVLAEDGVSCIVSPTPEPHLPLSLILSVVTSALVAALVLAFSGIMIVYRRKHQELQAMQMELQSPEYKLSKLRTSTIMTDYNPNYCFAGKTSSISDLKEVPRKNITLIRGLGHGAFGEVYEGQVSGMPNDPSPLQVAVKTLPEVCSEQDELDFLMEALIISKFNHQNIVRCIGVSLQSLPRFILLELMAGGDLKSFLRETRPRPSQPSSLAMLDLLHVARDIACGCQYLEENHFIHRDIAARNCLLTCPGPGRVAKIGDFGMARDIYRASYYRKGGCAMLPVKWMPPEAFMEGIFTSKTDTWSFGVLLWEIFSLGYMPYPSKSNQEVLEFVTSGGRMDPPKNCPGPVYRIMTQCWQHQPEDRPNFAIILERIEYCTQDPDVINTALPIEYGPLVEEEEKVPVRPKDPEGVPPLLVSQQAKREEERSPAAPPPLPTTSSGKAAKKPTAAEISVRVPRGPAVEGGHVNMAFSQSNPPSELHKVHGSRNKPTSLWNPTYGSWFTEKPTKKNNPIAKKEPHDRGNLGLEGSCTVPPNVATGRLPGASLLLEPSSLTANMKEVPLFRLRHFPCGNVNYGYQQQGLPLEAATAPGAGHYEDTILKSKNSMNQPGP
T7 sequence (P22455 22-802): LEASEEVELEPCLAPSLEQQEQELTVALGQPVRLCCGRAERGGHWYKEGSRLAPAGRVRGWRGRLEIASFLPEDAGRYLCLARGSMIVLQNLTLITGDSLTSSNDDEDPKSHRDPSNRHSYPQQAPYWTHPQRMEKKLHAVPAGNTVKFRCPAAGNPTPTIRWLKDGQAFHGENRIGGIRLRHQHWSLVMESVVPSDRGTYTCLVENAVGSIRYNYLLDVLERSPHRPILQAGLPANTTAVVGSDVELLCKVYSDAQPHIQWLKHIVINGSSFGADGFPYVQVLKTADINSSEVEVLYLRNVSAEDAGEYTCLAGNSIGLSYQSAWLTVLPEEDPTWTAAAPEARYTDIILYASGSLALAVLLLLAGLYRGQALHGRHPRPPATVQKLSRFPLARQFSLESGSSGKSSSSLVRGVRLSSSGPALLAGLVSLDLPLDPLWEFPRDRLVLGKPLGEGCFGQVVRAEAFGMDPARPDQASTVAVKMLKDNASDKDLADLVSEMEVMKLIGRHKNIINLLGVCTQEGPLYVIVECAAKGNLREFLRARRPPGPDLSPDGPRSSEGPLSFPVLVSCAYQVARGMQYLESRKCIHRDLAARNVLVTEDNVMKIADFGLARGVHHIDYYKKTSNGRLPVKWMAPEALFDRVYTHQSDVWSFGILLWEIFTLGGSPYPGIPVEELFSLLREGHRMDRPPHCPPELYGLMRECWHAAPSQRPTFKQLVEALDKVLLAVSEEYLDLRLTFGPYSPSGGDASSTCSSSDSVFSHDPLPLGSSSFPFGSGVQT
T6 sequence (P11362 22-822): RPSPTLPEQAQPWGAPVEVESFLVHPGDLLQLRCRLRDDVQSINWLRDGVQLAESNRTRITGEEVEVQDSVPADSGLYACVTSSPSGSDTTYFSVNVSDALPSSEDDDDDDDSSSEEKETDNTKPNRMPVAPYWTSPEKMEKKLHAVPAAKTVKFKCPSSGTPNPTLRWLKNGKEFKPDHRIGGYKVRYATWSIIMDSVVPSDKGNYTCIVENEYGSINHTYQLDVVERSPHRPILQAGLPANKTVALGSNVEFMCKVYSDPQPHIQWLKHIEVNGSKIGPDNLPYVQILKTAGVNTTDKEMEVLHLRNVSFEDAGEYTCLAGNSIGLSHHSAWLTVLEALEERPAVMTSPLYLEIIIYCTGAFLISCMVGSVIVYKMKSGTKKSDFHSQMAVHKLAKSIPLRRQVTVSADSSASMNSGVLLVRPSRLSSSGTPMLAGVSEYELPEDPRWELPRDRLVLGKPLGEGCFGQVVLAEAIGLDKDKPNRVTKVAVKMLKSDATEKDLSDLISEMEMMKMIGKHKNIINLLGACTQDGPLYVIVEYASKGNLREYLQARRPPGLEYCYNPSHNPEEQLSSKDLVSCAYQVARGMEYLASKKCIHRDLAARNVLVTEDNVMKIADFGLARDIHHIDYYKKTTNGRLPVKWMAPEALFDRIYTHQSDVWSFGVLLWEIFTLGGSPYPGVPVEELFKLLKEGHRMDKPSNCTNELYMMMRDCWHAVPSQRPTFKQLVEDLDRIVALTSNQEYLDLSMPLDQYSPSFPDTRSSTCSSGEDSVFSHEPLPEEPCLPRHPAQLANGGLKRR

Compound: CC#CC(=O)N1CCC[C@H]1c1nc(-c2ccc(C(=O)Nc3ccccn3)cc2)c2c(N)nccn12 [acalabrutinib]
- preferential targeting of ERBB2-amplified versus non-amplified cell lines [1]: 44 fold

Compound: Cn1cnc2c(F)c(Nc3ccc(Br)cc3F)c(C(=O)NOCCO)cc21 [binimetinib]
- IC50 (MEK1): 0.503 µM
- IC50 (MEK2): > 1 µM

Compound: CNC(=O)c1ccc(-c2cnc3ncc(Cc4ccc5ncccc5c4)n3n2)cc1F [capmatinib]
- IC50 (ALK): > 1 µM
- higher potency in MET-altered compared to MET wild-type cell lines (MET-altered cell lines): over 10,000 fold

Compound: O=C(c1ccc(F)c(F)c1Nc1ccc(I)cc1F)N1CC(O)([C@@H]2CCCCN2)C1 [cobimetinib]
- IC50 (MEK1): 0.061 µM
- IC50 (MEK2): 0.19 µM

Compound: COc1cc2ncnc(Nc3ccc(F)c(Cl)c3)c2cc1NC(=O)/C=C/CN1CCCCC1 [dacomitinib]
- lower potency on double mutants (p.T790M plus sensitizing mutation) than on wild-type EGFR and sensitizing mutants [2]: 30 fold
- lower potency in NCI-H1975 compared to osimertinib [3]: 28 fold

Compound: CN1CCN(c2ccc(C(=O)Nc3n[nH]c4ccc(Cc5cc(F)cc(F)c5)cc34)c(NC3CCOCC3)c2)CC1 [entrectinib]
- difference in IC50 between ALK-altered and ALK wild-type cell lines (ALK-altered cell lines): 12 fold

Compound: CCc1nc(C(N)=O)c(Nc2ccc(N3CCC(N4CCN(C)CC4)CC3)c(OC)c2)nc1NC1CCOCC1 [gilteritinib]
- potency on FLT3 compared to midostaurin (FLT3): around eight-fold more potent
- potency in the FLT3 ITD-mutant cell lines compared to midostaurin ([4]; on average): eight times more potent
- difference in IC50 between ALK-altered and ALK wild-type cell lines (ALK-altered cell lines): 55 fold

Compound: C=CC(=O)N1CCC[C@@H](n2nc(-c3ccc(Oc4ccccc4)cc3)c3c(N)ncnc32)C1 [ibrutinib]
- preferential targeting of ERBB2-amplified versus non-amplified cell lines [1]: 254 fold

Compound: CCN1CCN(c2ccc(Nc3cc(N(C)C(=O)Nc4c(Cl)c(OC)cc(OC)c4Cl)ncn3)cc2)CC1 [infigratinib]
- potency in FGFR-altered cell lines compared to erdafitinib and pemigatinib (FGFR-altered cell lines; average IC50): more than three-fold lower potency
- IC50 (FGFR-altered cell lines; geometric average): 0.02 µM
- higher potency in FGFR-altered compared to FGFR wild-type cell lines (FGFR-altered cell lines): 130 fold

Compound: O=C(Nc1cnn2ccc(N3CCC[C@@H]3c3cc(F)ccc3F)nc12)N1CC[C@H](O)C1 [larotrectinib]
- higher IC50 in MOLM-13 and MV4-11 compared to AP-1060 ([4]; cell viability): more than 1000 fold
- IC50 (ALK): > 1 µM
- higher IC50 on ROS1 compared to TRKA-C (ROS): around 100 fold

Compound: CCN1C(=O)N(c2c(F)c(OC)cc(OC)c2F)Cc2cnc3[nH]c(CN4CCOCC4)cc3c21 [pemigatinib]
- higher potency in FGFR-altered compared to FGFR wild-type cell lines (FGFR-altered cell lines): over 500 fold
- IC50 (FGFR-altered cell lines): 0.0043 µM

Compound: CO[C@]1(C(=O)N[C@@H](C)c2ccc(-n3cc(F)cn3)nc2)CC[C@H](c2nc(C)cc(Nc3cc(C)[nH]n3)n2)CC1 [pralsetinib]
- IC50 (FGFR3): 0.05 µM
- activity in FGFR-altered versus wild-type cell lines (FGFR-altered cell lines): around ten times more active
- IC50 (FGFR2): 0.027 µM
- lower IC50 in RET-altered versus wild-type cell lines [5]: 76 fold
- IC50 (FGFR1): 0.011 µM
- IC50 (FGFR4): 0.183 µM

Compound: COc1ccc(CN2C3CC2CN(c2ccc(-c4cc(OCC(C)(C)O)cn5ncc(C#N)c45)cn2)C3)cn1 [selpercatinib]
- IC50 (FGFR3): 0.05 µM
- activity in FGFR-altered versus wild-type cell lines (FGFR-altered cell lines): around ten times more active
- IC50 (FGFR2): 0.016 µM
- lower IC50 in RET-altered versus wild-type cell lines [5]: 232 fold
- potency in the RET-altered cell lines compared to pralsetinib ([5]; cell viability): three-fold more potent
- IC50 (FGFR1): 0.046 µM
- potency on RET compared to pralsetinib (RET): almost two-fold more potent
- IC50 (FGFR4): 0.26 µM

Compound: Cc1cc(Nc2ncnc3ccc(NC4=NC(C)(C)CO4)cc23)ccc1Oc1ccn2ncnc2c1 [tucatinib]
- IC50 (EGFR): 0.0067 µM
- IC50 (HER4): 0.095 µM
- IC50 (HER2): 0.0033 µM

Compound: C=CC(=O)N1CCC([C@@H]2CCNc3c(C(N)=O)c(-c4ccc(Oc5ccccc5)cc4)nn32)CC1 [zanubrutinib]
- IC50 (BRK): 0.018 µM
- preferential targeting of ERBB2-amplified versus non-amplified cell lines [1]: 45 fold
